Target: c-kit WT (Homo sapiens (Human), UniProt P10721)
Test: Proliferation assay (CellTiter-Blue) on BaF3 Kit WT cell line
Type: cell-based
Settings: BaF3 Kit WT cell line (murine Ba/F3 expressing Human Kit WT, with murine SCF), 48 hours
Description: Procedures of C-Kit WT Inhibition Assays:
Colorimetric cell proliferation and viability assay (reagent CellTiter-Blue purchased from Promega cat N°G8081) was performed on BaF3 Kit WT cell line.
A total of 2.10^4 cells/50 μl were seeded per well of a 96-wells plate. Treatment was initiated by addition of a 2× drug solution of ½ serial dilutions ranging from 0 to 10 μM. After incubating for 48 hours at 37° C., 10 μl of a ½ dilution of CellTiter-Blue reagent was added to each well and the plates were returned to the incubator for an additional 4 hours. The fluorescence intensity from the CellTiter-Blue reagent is proportional to the number of viable cells and data were recorded (544Ex/590Em) using a POLARstar OMEGA microplate reader (BMG LabteckSarl). A background control without cells was used as a blank. The positive control of the assay corresponds to the cell proliferation obtained in the absence of drug treatment (100% proliferation). Each sample was done in triplicate. The results were expressed as a percentage of the proliferation obtained in absence of treatment. All drugs were prepared as 20 mM stock solutions in DMSO and conserved at −80° C. Drug dilutions were made fresh in medium before each experiment. A DMSO control was included in each experiment.
The cell line expressing Human Kit WT was derived from the murine IL3-dependent Ba/F3 proB lymphoid cells. Ba/F3 Kit WT cells were maintained in RPMI medium containing 10% FCS and supplemented with 250 ng/ml of recombinant murine SCF.

c-kit WT, sequence (P10721 26-976): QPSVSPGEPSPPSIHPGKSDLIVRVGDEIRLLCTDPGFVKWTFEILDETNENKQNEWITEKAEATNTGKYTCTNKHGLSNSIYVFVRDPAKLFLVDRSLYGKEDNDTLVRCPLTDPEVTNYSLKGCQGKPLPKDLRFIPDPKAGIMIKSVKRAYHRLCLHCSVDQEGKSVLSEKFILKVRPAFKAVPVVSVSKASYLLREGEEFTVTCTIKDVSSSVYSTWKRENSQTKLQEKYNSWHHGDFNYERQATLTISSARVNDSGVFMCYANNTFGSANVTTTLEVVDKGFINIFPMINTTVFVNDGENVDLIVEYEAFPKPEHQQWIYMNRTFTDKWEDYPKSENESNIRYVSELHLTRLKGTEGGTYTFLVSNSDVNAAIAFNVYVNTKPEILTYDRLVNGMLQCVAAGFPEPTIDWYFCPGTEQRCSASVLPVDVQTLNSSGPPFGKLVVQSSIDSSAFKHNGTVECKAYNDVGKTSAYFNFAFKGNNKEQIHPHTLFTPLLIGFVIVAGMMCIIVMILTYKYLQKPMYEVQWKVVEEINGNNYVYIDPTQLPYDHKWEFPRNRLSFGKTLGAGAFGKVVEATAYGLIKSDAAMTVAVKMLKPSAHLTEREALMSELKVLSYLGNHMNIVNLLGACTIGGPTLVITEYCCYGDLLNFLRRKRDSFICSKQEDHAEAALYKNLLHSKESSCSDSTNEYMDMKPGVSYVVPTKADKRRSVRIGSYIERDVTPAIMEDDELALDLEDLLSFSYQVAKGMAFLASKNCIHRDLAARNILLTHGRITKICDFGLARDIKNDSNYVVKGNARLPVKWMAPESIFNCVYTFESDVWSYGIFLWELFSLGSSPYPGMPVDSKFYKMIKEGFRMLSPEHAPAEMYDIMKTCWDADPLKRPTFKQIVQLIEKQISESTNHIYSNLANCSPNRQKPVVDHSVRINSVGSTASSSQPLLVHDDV

Row | IC50 [nM] | SMILES
1 | 1000 to 10000 | Cc1cc2nc(-c3ccccc3C)[nH]c2cc1Nc1nc(-c2cccnc2)cs1 [Compound 001, (6-Methyl-2-o-tolyl-3H-benzoimidazol-5-yl)-(4-pyridin-3-yl-thiazol-2-yl)-amine]
2 | 1000 to 10000 | COc1ccc(-c2nc3cc(C)c(Nc4nc(-c5cccnc5)cs4)cc3[nH]2)cc1 [Compound 002, [2-(4-Methoxy-phenyl)-6-methyl-3H-benzoimidazol-5-yl]-(4-pyridin-3-yl-thiazol-2-yl)-amine]
3 | ≤ 1000 | Cc1cc2nc(-c3ccc(CN4CCN(C)CC4)cc3)[nH]c2cc1Nc1nc(-c2cccnc2)cs1 [Compound 003, {6-Methyl-2-[4-(4-methyl-piperazin-1-ylmethyl)-phenyl]-3H-benzoimidazol-5-yl}-(4-pyridin-3-yl-thiazol-2-yl)-amine]
4 | 1000 to 10000 | Cc1ccc(-c2nc3cc(C)c(Nc4nc(-c5cccnc5)cs4)cc3[nH]2)cc1 [Compound 004, (6-Methyl-2-p-tolyl-3H-benzoimidazol-5-yl)-(4-pyridin-3-yl-thiazol-2-yl)-amine]
5 | ≤ 1000 | Cc1cc2nc(-c3cccc(C(F)(F)F)c3)[nH]c2cc1Nc1nc(-c2cccnc2)cs1 [Compound 005, [6-Methyl-2-(3-trifluoromethyl-phenyl)-3H-benzoimidazol-5-yl]-(4-pyridin-3-yl-thiazol-2-yl)-amine]
6 | 1000 to 10000 | Cc1cc2nc(-c3ccc(CN4CCN(C)CC4)cc3)[nH]c2cc1Nc1ncc(-c2cccnc2)o1 [Compound 006, {6-Methyl-2-[4-(4-methyl-piperazin-1-ylmethyl)-phenyl]-3H-benzoimidazol-5-yl}-(5-pyridin-3-yl-oxazol-2-yl)-amine]
7 | 1000 to 10000 | Cc1cc2nc(-c3cccc(C(F)(F)F)c3)[nH]c2cc1Nc1ncc(-c2cccnc2)o1 [Compound 007, [6-Methyl-2-(3-trifluoromethyl-phenyl)-3H-benzoimidazol-5-yl]-(5-pyridin-3-yl-oxazol-2-yl)-amine]
8 | ≤ 1000 | Cc1cc2nc(-c3cccc(C(F)(F)F)c3)[nH]c2cc1Nc1nccc(-c2cccnc2)n1 [Compound 008]
9 | 1000 to 10000 | Cc1cc2nc(-c3ccc(CN4CCN(C)CC4)cc3)[nH]c2cc1Nc1nccc(-c2cccnc2)n1 [Compound 009, {6-Methyl-2-[4-(4-methyl-piperazin-1-ylmethyl)-phenyl]-3H-benzoimidazol-5-yl}-(4-pyridin-3-yl-pyrimidin-2-yl)-amine]
10 | ≤ 1000 | Cc1cc2nc(-c3cccc(C#N)c3)[nH]c2cc1Nc1nc(-c2cccnc2)cs1 [Compound 010, 3-[5-Methyl-6-(4-pyridin-3-yl-thiazol-2-ylamino)-1H-benzoimidazol-2-yl]-benzonitrile]
11 | ≤ 1000 | Cc1cccc(-c2nc3cc(C)c(Nc4nc(-c5cccnc5)cs4)cc3[nH]2)c1 [Compound 011, (6-Methyl-2-m-tolyl-3H-benzoimidazol-5-yl)-(4-pyridin-3-yl-thiazol-2-yl)-amine]
12 | 1000 to 10000 | Cc1cccc(-c2nc3cc(C)c(Nc4nccc(-c5cccnc5)n4)cc3[nH]2)c1 [Compound 012, (6-Methyl-2-m-tolyl-3H-benzoimidazol-5-yl)-(4-pyridin-3-yl-pyrimidin-2-yl)-amine]
13 | 1000 to 10000 | Cc1cc2nc(-c3cccc(C#N)c3)[nH]c2cc1Nc1nccc(-c2cccnc2)n1 [Compound 013, 3-[5-Methyl-6-(4-pyridin-3-yl-pyrimidin-2-ylamino)-1H-benzoimidazol-2-yl]-benzonitrile]
14 | 1000 to 10000 | Cc1cc2nc(-c3cccnc3)[nH]c2cc1Nc1nccc(-c2cccnc2)n1 [Compound 014, (6-Methyl-2-pyridin-3-yl-3H-benzoimidazol-5-yl)-(4-pyridin-3-yl-pyrimidin-2-yl)-amine]
15 | 1000 to 10000 | Cc1cc2nc(-c3cccc(N4CCN(C)CC4)c3)[nH]c2cc1Nc1nccc(-c2cccnc2)n1 [Compound 015, {6-Methyl-2-[3-(4-methyl-piperazin-1-yl)-phenyl]-3H-benzoimidazol-5-yl}-(4-pyridin-3-yl-pyrimidin-2-yl)-amine]
16 | 1000 to 10000 | Cc1cc2nc(-c3cccc(OCCN(C)C)c3)[nH]c2cc1Nc1nccc(-c2cccnc2)n1 [Compound 016, {2-[3-(2-Dimethylamino-ethoxy)-phenyl]-6-methyl-3H-benzoimidazo1-5-yl}-(4-pyridin-3-yl-pyrimidin-2-yl)-amine]
17 | 1000 to 10000 | Cc1cc2nc(-c3cnc4ccccc4c3)[nH]c2cc1Nc1nccc(-c2cccnc2)n1 [Compound 017, (6-Methyl-2-quinolin-3-yl-3H-benzoimidazol-5-yl)-(4-pyridin-3-yl-pyrimidin-2-yl)-amine]

Row | IC50 [nM] | SMILES
18 | 1000 to 10000 | Cc1cc2nc(-c3cccc(CN4CCOCC4)c3)[nH]c2cc1Nc1nccc(-c2cccnc2)n1 [Compound 018, [6-Methyl-2-(3-morpholin-4-ylmethyl-phenyl)-3H-benzoimidazol-5-yl]-(4-pyridin-3-yl-pyrimidin-2-yl)-amine]
19 | 1000 to 10000 | Cc1cc2nc(-c3cccc(F)c3)[nH]c2cc1Nc1nccc(-c2cccnc2)n1 [Compound 019, [2-(3-Fluoro-phenyl)-6-methyl-3H-benzoimidazol-5-yl]-(4-pyridin-3-yl-pyrimidin-2-yl)-amine]
20 | ≤ 1000 | Cc1cc2nc(-c3cc(CN4CCOCC4)cc(C(F)(F)F)c3)[nH]c2cc1Nc1nc(-c2cccnc2)cs1 [Compound 020, [6-Methyl-2-(3-morpholin-4-ylmethyl-5-trifluoromethyl-phenyl)-3H-benzoimidazol-5-yl]-(4-pyridin-3-yl-thiazol-2-yl)-amine]
21 | 1000 to 10000 | Cc1cc2nc(-c3ccc(C(F)(F)F)cc3)[nH]c2cc1Nc1nc(-c2cccnc2)cs1 [Compound 021, [6-Methyl-2-(4-trifluoromethyl-phenyl)-3H-benzoimidazol-5-yl]-(4-pyridin-3-yl-thiazol-2-yl)-amine]
22 | 1000 to 10000 | Cc1cc2nc(Cc3ccccc3)[nH]c2cc1Nc1nc(-c2cccnc2)cs1 [Compound 022, (2-Benzyl-6-methyl-3H-benzoimidazol-5-yl)-(4-pyridin-3-yl-thiazol-2-yl)-amine]
23 | 1000 to 10000 | Cc1cc2nc(-c3cc(CN4CCCC4)cc(C(F)(F)F)c3)[nH]c2cc1Nc1nc(-c2cccnc2)cs1 [Compound 023, [6-Methyl-2-(3-pyrrolidin-1-ylmethyl-5-trifluoromethyl-phenyl)-3H-benzoimidazol-5-yl]-(4-pyridin-3-yl-thiazol-2-yl)-amine]
24 | ≤ 1000 | Cc1cc2nc(-c3cc(CN4CCCCC4)cc(C(F)(F)F)c3)[nH]c2cc1Nc1nc(-c2cccnc2)cs1 [Compound 024, [6-Methyl-2-(3-piperidin-1-ylmethyl-5-trifluoromethyl-phenyl)-3H-benzoimidazol-5-yl]-(4-pyridin-3-yl-thiazol-2-yl)-amine]
25 | ≤ 1000 | Cc1cc2nc(-c3cccc(C(F)F)c3)[nH]c2cc1Nc1nc(-c2cccnc2)cs1 [Compound 025, [2-(3-Difluoromethyl-phenyl)-6-methyl-3H-benzoimidazol-5-yl]-(4-pyridin-3-yl-thiazol-2-yl)-amine]
26 | ≤ 1000 | Cc1cc2nc(-c3cccc(OC(F)(F)F)c3)[nH]c2cc1Nc1nc(-c2cccnc2)cs1 [Compound 026]
27 | 1000 to 10000 | Cc1cc2nc(-c3ccc(C(F)(F)F)cc3)[nH]c2cc1Nc1nccc(-c2cccnc2)n1 [Compound 027, [6-Methyl-2-(4-trifluoromethyl-phenyl)-3H-benzoimidazol-5-yl]-(4-pyridin-3-yl-pyrimidin-2-yl)-amine]
28 | ≤ 1000 | Cc1cc2nc(-c3cc(CN4CCOCC4)cc(C(F)(F)F)c3)[nH]c2cc1Nc1nccc(-c2cccnc2)n1 [Compound 028]
29 | ≤ 1000 | Cc1cc2nc(-c3cc(CN4CCCC4)cc(C(F)(F)F)c3)[nH]c2cc1Nc1nccc(-c2cccnc2)n1 [Compound 029, [6-Methyl-2-(3-pyrrolidin-1-ylmethyl-5-trifluoromethyl-phenyl)-3H-benzoimidazol-5-yl]-(4-pyridin-3-yl-pyrimidin-2-yl)-amine]
30 | ≤ 1000 | Cc1cc2nc(-c3cccc(C(F)F)c3)[nH]c2cc1Nc1nccc(-c2cccnc2)n1 [Compound 030, [2-(3-Difluoromethyl-phenyl)-6-methyl-3H-benzoimidazol-5-yl]-(4-pyridin-3-yl-pyrimidin-2-yl)-amine]
31 | ≤ 1000 | Cc1cc2nc(-c3cccc(Cl)c3)[nH]c2cc1Nc1nccc(-c2cccnc2)n1 [Compound 031, [2-(3-Chloro-phenyl)-6-methyl-3H-benzoimidazol-5-yl]-(4-pyridin-3-yl-pyrimidin-2-yl)-amine]
32 | ≤ 1000 | Cc1cc2nc(-c3cccc(Cl)c3)[nH]c2cc1Nc1nc(-c2cccnc2)cs1 [Compound 032, [2-(3-Chloro-phenyl)-6-methyl-3H-benzoimidazol-5-yl]-(4-pyridin-3-yl-thiazol-2-yl)-amine]
33 | ≤ 1000 | Cc1cc2nc(-c3cccc(C(F)(F)F)c3)[nH]c2cc1Nc1nc(-c2ccncc2)cs1 [Compound 033, [6-Methyl-2-(3-trifluoromethyl-phenyl)-3H-benzoimidazol-5-yl]-(4-pyridin-4-yl-thiazol-2-yl)-amine]
34 | ≤ 1000 | Cc1cccc(-c2nc3cc(C)c(Nc4nc(-c5ccncc5)cs4)cc3[nH]2)c1 [Compound 034, (6-Methyl-2-m-tolyl-3H-benzoimidazol-5-yl)-(4-pyridin-4-yl-thiazol-2-yl)-amine]

— patent US10202370B2, “Benzimidazole derivatives as selective proteine kinase inhibitors” (AB SCIENCE, priority 2013, dated 2019)
